# Assays:
# [1] = system: Phytophthora; experiment: D-3: Action against Phytophthora on potato plants (residual-protective and systemic action); type: in vivo; conditions: potato plants (Bintje variety), 0.02% active ingredient; sprayed or watered (systemic), infected after 48 hours, evaluated after 4 days
# Protocol: ID-3: Action Against Phytophthora on Potato Plants
# (§1) a) Residual-protective Action
# (§2) 2-3 week old potato plants (Bintje variety) are sprayed with a spray mixture (0.02% active ingredient) prepared from a wettable powder formulation of the test compound. After 48 hours, the treated plants are infected with a sporangia suspension of the fungus. Fungus infestation is evaluated after incubation of the infected plants for 4 days at 90-100% relative humidity and +20° C.
# as §2, with “watered” for “sprayed”, “ingredient based on the volume of the soil)” for “ingredient)”, “compound. […]” for “compound.”, “C. Fungal infestation is effectively controlled with compounds of Tables 1 to 47.” for “C.”
# [2] = system: Phytophthora; experiment: D-2: Action against Phytophthora on tomato plants (residual-protective and systemic action); type: in vivo; conditions: 0.02% active ingredient, sprayed (infected after 48 hours, evaluated after 5 days) or watered, systemic (infected after 96 hours, evaluated after 4 days)
# Protocol: D-2: Action Against Phytophthora on Tomato Plants
# as §1
# (§3) After a cultivation period of 3 weeks, tomato plants are sprayed with a spray mixture (0.02% active ingredient) prepared from a wettable powder formulation of the test compound. After 48 hours, the treated plants are infected with a sporangia suspension of the fungus. Fungus infestation is evaluated after incubation of the infected plants for 5 days at 90-100% relative humidity and +20° C.
# as §3, with “watered” for “sprayed”, “ingredient based on the volume of the soil)” for “ingredient)”, “compound. […]” for “compound.”, “96” for “48”, “4” for “5”
# [3] = system: Plasmopara viticola; experiment: D-1: Action against Plasmopara viticola on vines (residual-protective and residual-curative action); type: in vivo; conditions: vine seedlings, spray mixture 0.02% active ingredient; protective (infected after 24 hours) or curative (sprayed 24 hours after infection); evaluated after 6 days
# Protocol: D-1: Action Against Plasmopara viticola on Vines a) Residual-Protective Action
# Vine seedlings are sprayed at the 4- to 5-leaf stage with a spray mixture (0.02% active ingredient) prepared from a wettable powder formulation of the test compound. After 24 hours, the treated plants are infected with a sporangia suspension of the fungus. Fungus infestation is evaluated after incubation for 6 days at 95-100% relative humidity and +20° C. […]
# b) Residual-curative Action
# Vine seedlings are infected at the 4- to 5-leaf stage with a sporangia suspension of the fungus. After incubation for 24 hours in a humidity chamber at 95-100% relative humidity and +20° C., the infected plants are dried and sprayed with a spray mixture (0.02% active ingredient) prepared from a wettable powder formulation of the test compound. After the spray coating has dried, the treated plants are placed in the humidity chamber again.
# Fungus infestation is evaluated 6 days after infection.
smiles,measurement,setting,value
C#CCOc1ccc(CCNC(=O)C(=O)c2ccc(-c3ccc(Cl)cc3)cc2)cc1OC,melting point,,122 to 124 °C
COc1cc(CCNC(=O)[C@H](NC(=O)OC(C)(C)C)C(C)C)ccc1OCC#Cc1ccc(Cl)cc1 (stereo in doubt),melting point,,141 to 142 °C
"C#CCOc1ccc(CCNC(=O)C(O)c2ccc(Cl)c(Cl)c2)cc1OC (stereo not drawn) [Compound E1.01, 2-(3,4-Dichloro-phenyl)-2-hydroxy-N-[2-(3-methoxy-4-prop-2-ynyloxy-phenyl)-ethyl]-acetamide]",fungal infestation (Phytophthora on potato plants),[1],completely inhibit fungal infestation
same,fungal infestation (Phytophthora on tomato plants),[2],completely inhibit fungal infestation
same,fungal infestation (Plasmopara viticola on vines),[3],completely inhibit fungal infestation
"CCC#CCOc1ccc(CCNC(=O)C(O)c2ccc(Cl)c(Cl)c2)cc1OC (stereo not drawn) [Compound E1.02, 2-(3,4-Dichloro-phenyl)-2-hydroxy-N-[2-(3-methoxy-4-pent-2-ynyloxy-phenyl)-ethyl]-acetamide]",fungal infestation (Phytophthora on potato plants),[1],completely inhibit fungal infestation
same,fungal infestation (Phytophthora on tomato plants),[2],completely inhibit fungal infestation
same,fungal infestation (Plasmopara viticola on vines),[3],completely inhibit fungal infestation
"CCC#CCOc1ccc(CCNC(=O)C(=O)c2ccc(Cl)c(Cl)c2)cc1OC [Compound E2.02, 2-(3,4-Dichloro-phenyl)-N-[2-(3-methoxy-4-pent-2-ynyloxy-phenyl)-ethyl]-2-oxo-acetamide]",melting point,,94 to 95 °C
same,fungal infestation (Phytophthora on tomato plants),[2],completely inhibit fungal infestation
same,fungal infestation (Plasmopara viticola on vines),[3],completely inhibit fungal infestation
"C#CCOc1ccc(CCNC(=O)C(O)c2ccc(-c3ccc(C(F)(F)F)cc3)cc2)cc1OC (stereo not drawn) [Compound E3.03, 2-(4′-Trifluoro-biphenyl-4-yl)-2-hydroxy-N-[2-(3-methoxy-4-prop-2-ynyloxy-phenyl)-ethyl]-acetamide]",fungal infestation (Phytophthora on tomato plants),[2],completely inhibit fungal infestation
same,fungal infestation (Plasmopara viticola on vines),[3],completely inhibit fungal infestation
"C#CCOc1ccc(CCNC(=O)C(OC(=O)C(=O)OC)c2ccc(Br)cc2)cc1OC (stereo not drawn) [Compound E4.01, 2-(4-Bromo-phenyl)-2-methyloxalyloxy-N-[2-(3-methoxy-4-prop-2-ynyloxy-phenyl)-ethyl]-acetamide]",fungal infestation (Phytophthora on tomato plants),[2],completely inhibit fungal infestation
same,fungal infestation (Plasmopara viticola on vines),[3],completely inhibit fungal infestation

# Source: patent publication US6469005B1, “Propargylether derivatives” (priority 1999, dated 2002)
